Data: patent US9150534B2, “Prodrugs of fluorinated mevalonates to inhibit the mevalonate pathway of Streptococcus pneumoniae” (Northwestern University, priority 2012, dated 2015)
Read-outs that look alike come from different tables or passages of the source. Blank lines part the entries; values can stand above or below the compound they belong to.

Key:
[1] = Evaluation of stability in human plasma, HPLC or LC-TOF; assay type: in vitro ADME
Experimental: The stabilities of diverse cyclic carbonate prodrugs (4, 9, 10, 11, 17, 18, 19, 25, 29, 30, 39, 40, and 41), which have a chromosphere for UV detection, in human plasma were tested using HPLC. After the mixture of test compounds and human plasma were incubated at 37° C., the degradation of the compounds was monitored by HPLC (Table 2). […] The peaks of the corresponding diols (3, 24, or 34), which were the compounds that result when only the carbonate moiety of the analogues was hydrolyzed, were not observed. The half-lives of the benzyl or phenyl ester moieties may be shorter than carbonate, under tested conditions for such compounds to be used effectively as prodrugs.
Human plasma (100%, 480 μL) was incubated at 37° C. for 5 min. The stock solution of the test compound (100 mM in acetonitrile, 20 μL) was added to the human plasma, and the mixture was incubated at 37° C. Aliquots (80 μL) of the plasma samples were removed and mixed with an equal volume of acetonitrile. The mixture was stirred vigorously and centrifuged (5500 rpm, 5 min). The supernatant was filtered and the filtrate was analyzed by HPLC or LC-TOF (See below). These tests were conducted two times in each compound.
(§1) Analysis was performed on a Phenomenex® Luna C18 column (250×4.6 mm) eluted with a gradient conditions of acetonitrile and H2O. Detection was by UV absorbance at 257 nm or total count of single ion in Agilent 6210 LC-TOF mass spectra.

[2] = Evaluation of stability in PBS buffer (pH=7.4), HPLC; assay type: physicochemical; conditions: for half-life at 1 mM: PBS buffer pH=7.4, 37° C., read-out: half-life time (T1/2) in PBS buffer (converted)
Experimental: The stabilities of several cyclic carbonate analogues in PBS buffer (pH=7.4) were tested first to determine the standard level of the drug decomposition by media (Table 1). PBS (phosphate buffered saline) buffer is a standard solution used in plasma stability tests. […] After the compounds were incubated in PBS buffer at 37° C., the degradation of the compounds with incubation time was monitored. As the number of fluorines at the C6 position was increased, the half-life time (T1/2) of the molecule was decreased dramatically (4 vs 25 vs 35). T1/2 of the C6-methyl analogue (4) was more than 48 hours and T1/2 of C6-monofluoromethyl analogues (25, 29, and 30) were about 25 hours while T1/2 of C6-trifluoromethyl analogues (35, 39, and 40) were about 5 hours. If the substitution of C-6 position (CH3, CH2F, or CF3) was same, T1/2 of diverse benzyl esters (benzyl, 4-fluorobenzyl, or 2,4-difluorobenzyl) were not dramatically changed. […] These half-lives of benzyl esters and cyclic carbonates in PBS buffer were sufficient to use these promoieties for the penetration of the cell membrane.
The stock solution of the test compound (10 mM in acetonitrile, 50 μL) was added to PBS buffer (pH=7.4, 450 μL), and the mixture was incubated at 37° C. Aliquots of the samples were analyzed directly by HPLC (See below). These tests were conducted two times in each compound.
as §1

[3] = human, human plasma (100%), 37° C., read-out: T1/2 (stabilities of the benzyl amide analogues with acetal, ketal, t-butyl carbonate promoieties in human plasma)
[4] = human, human plasma (100%), 37° C., read-out: half-life (T1/2) in human plasma
[5] = human, human plasma (100%), 37° C., read-out: T1/2 (half-lives of diverse carbonate in human plasma)
[6] = read-out: half-life of the ester moieties on the carboxylic acids

half-life at 4 mM [1, 3]: > 2880 min
SMILES: CC1(C)OCCC(CC(=O)NCc2ccccc2)(C(F)(F)F)O1 (stereo not drawn) [compound 48]

T1/2 (stabilities of the benzyl amide analogues with acetal, ketal, t-butyl carbonate promoieties in human plasma) ([1]; 37° C.): >48 h
SMILES: CC1(CC(=O)NCc2ccccc2)CCOC(c2ccccc2)O1 (stereo not drawn) [compound 49]

half-life at 4 mM ([1]; human, human plasma (100%), 37° C., read-out: T1/2 (stabilities of amide and ester analogues in human plasma)): 20 min
half-life at 4 mM ([1]; human, human plasma (100%), read-out: half-life of the acetyl groups on the alcohol): ~20 min
SMILES: CC(=O)OCCC(O)(CF)CC(=O)NCc1ccccc1 (stereo not drawn) [compound 65]

half-life at 1 mM [2]: ~25 h
T1/2 (half-lives of diverse carbonate in human plasma) ([1]; 37° C.): 2 min
half-life at 4 mM [1, 4]: < 3 min
SMILES: O=C(CC1(CF)CCOC(=O)O1)OCc1ccc(F)cc1 (stereo not drawn) [compound 29]

T1/2 (stabilities of the benzyl amide analogues with acetal, ketal, t-butyl carbonate promoieties in human plasma) ([1]; 37° C.): >48 h
SMILES: COc1ccc(C2OCCC(CC(=O)NCc3ccccc3)(C(F)(F)F)O2)cc1 (stereo not drawn) [compound 51]

half-life at 4 mM [1, 4]: < 3 min
SMILES: CC1(CC(=O)Nc2ccccc2)CCOC(=O)O1 (stereo not drawn) [compound 17]

melting point: 42 to 42.5 °C
SMILES: COC(=O)CC1(CF)CCOC(=O)O1 (stereo not drawn)

half-life at 4 mM [1, 4]: 8 min
SMILES: CC1(CC(=O)NCc2ccc(F)cc2)CCOC(=O)O1 (stereo not drawn) [compound 19]

half-life at 1 mM [2]: > 48 h
half-life at 4 mM [1, 4]: 4 min
SMILES: CC1(CC(=O)OCc2ccccc2)CCOC(=O)O1 (stereo not drawn) [compound 4]

melting point: 88 to 89 °C
half-life at 4 mM [1, 5]: < 3 min
half-life at 4 mM [1, 4]: < 3 min
SMILES: CC1(CC(=O)Oc2ccc3c(c2)CCC3)CCOC(=O)O1 (stereo not drawn) [compound 11]

half-life at 4 mM [1, 3]: > 2880 min
SMILES: COc1ccc(C2OCCC(CC(=O)NCc3ccccc3)(C(F)(F)F)O2)cc1 (stereo not drawn) [compound 52]

half-life at 1 mM [2]: ~25 h
T1/2 (half-lives of diverse carbonate in human plasma) ([1]; 37° C.): 1 min
half-life at 4 mM [1, 4]: < 3 min
SMILES: O=C(CC1(CF)CCOC(=O)O1)OCc1ccc(F)cc1F (stereo not drawn) [compound 30]

half-life at 1 mM [2]: ~5 h
T1/2 (half-lives of diverse carbonate in human plasma) ([1]; 37° C.): <1 min
half-life at 4 mM [1, 4]: < 3 min
SMILES: O=C(CC1(C(F)(F)F)CCOC(=O)O1)OCc1ccc(F)cc1F (stereo not drawn) [compound 40]

T1/2 (stabilities of the benzyl amide analogues with acetal, ketal, t-butyl carbonate promoieties in human plasma) ([1]; 37° C.): >48 h
SMILES: CC1(CC(=O)NCc2ccccc2)CCOC(C)(C)O1 (stereo not drawn) [compound 47]

half-life at 1 mM [2]: ~25 h
T1/2 (half-lives of diverse carbonate in human plasma) ([1]; 37° C.): 2 min
half-life at 4 mM [1, 4]: < 3 min
SMILES: O=C(CC1(CF)CCOC(=O)O1)OCc1ccccc1 (stereo not drawn) [compound 25]

SMILES: COC(=O)CC(O)(CF)CCOC(C)=O (stereo not drawn) [compound 63]
T1/2 (stabilities of amide and ester analogues in human plasma) ([1]; 37° C.): 10 min
half-life at 4 mM [1, 6]: 10 to 22 min

SMILES: CCOC(=O)CC(O)(CF)CCOC(C)=O (stereo not drawn) [compound 64]
T1/2 (stabilities of amide and ester analogues in human plasma) ([1]; 37° C.): 11 min
half-life at 4 mM [1, 6]: 10 to 22 min

half-life at 4 mM [1, 5]: 4 min
half-life at 4 mM [1, 4]: < 3 min
SMILES: O=C(CC1(C(F)(F)F)CCOC(=O)O1)OCCc1ccccc1 (stereo not drawn) [compound 41]

melting point: 68 to 69 °C
half-life at 4 mM [1, 4]: < 3 min
SMILES: CC1(CC(=O)Oc2ccc(F)cc2)CCOC(=O)O1 (stereo not drawn) [compound 10]

T1/2 (stabilities of the benzyl amide analogues with acetal, ketal, t-butyl carbonate promoieties in human plasma) ([1]; 37° C.): >48 h
SMILES: O=C(CC1(C(F)(F)F)CCOCO1)NCc1ccccc1 (stereo not drawn) [compound 46]

T1/2 (stabilities of the benzyl amide analogues with acetal, ketal, t-butyl carbonate promoieties in human plasma) ([1]; 37° C.): >48 h
SMILES: CC(C)(C)OC(=O)OCCC(O)(CC(=O)NCc1ccccc1)C(F)(F)F (stereo not drawn) [compound 55]

T1/2 (stabilities of the benzyl amide analogues with acetal, ketal, t-butyl carbonate promoieties in human plasma) ([1]; 37° C.): >48 h
SMILES: CC1(CC(=O)NCc2ccccc2)CCOCO1 (stereo not drawn) [compound 45]

T1/2 (stabilities of the benzyl amide analogues with acetal, ketal, t-butyl carbonate promoieties in human plasma) ([1]; 37° C.): >48 h
SMILES: COc1ccc(C2OCCC(CC(=O)NCc3ccccc3)(C(F)(F)F)O2)c(OC)c1 (stereo not drawn) [compound 53]

half-life at 1 mM [2]: ~5 h
melting point: 84 to 85 °C
T1/2 (half-lives of diverse carbonate in human plasma) ([1]; 37° C.): <1 min
half-life at 4 mM [1, 4]: < 3 min
SMILES: O=C(CC1(C(F)(F)F)CCOC(=O)O1)OCc1ccc(F)cc1 (stereo not drawn) [compound 39]

T1/2 (stabilities of the benzyl amide analogues with acetal, ketal, t-butyl carbonate promoieties in human plasma) ([1]; 37° C.): >48 h
SMILES: O=C(CC1(C(F)(F)F)CCOC(c2ccccc2)O1)NCc1ccccc1 (stereo not drawn) [compound 50]

melting point: 62 to 62.5 °C
half-life at 4 mM [1, 4]: < 3 min
SMILES: CC1(CC(=O)Oc2ccccc2)CCOC(=O)O1 (stereo not drawn) [compound 9]

T1/2 (stabilities of the benzyl amide analogues with acetal, ketal, t-butyl carbonate promoieties in human plasma) ([1]; 37° C.): >48 h
SMILES: CC(O)(CCOC(=O)OC(C)(C)C)CC(=O)NCc1ccccc1 (stereo not drawn) [compound 54]

T1/2 (stabilities of amide and ester analogues in human plasma) ([1]; 37° C.): > 120 min
SMILES: CC(O)(CCO)CC(=O)NCc1c(F)c(F)c(F)c(F)c1F (stereo not drawn) [compound 56]

half-life at 4 mM [1, 4]: 8 min
SMILES: CC1(CC(=O)NCc2ccccc2)CCOC(=O)O1 (stereo not drawn) [compound 18]

half-life at 1 mM [2]: ~5 h
peak of 34 (carbonate moiety decomposition product) in HPLC ([2]; degradation of 35 in PBS buffer): not observed
melting point: 87.5 to 88 °C
T1/2 (half-lives of diverse carbonate in human plasma) ([1]; 37° C.): <1 min
half-life at 4 mM [1, 4]: < 3 min
SMILES: O=C(CC1(C(F)(F)F)CCOC(=O)O1)OCc1ccccc1 (stereo not drawn) [compound 35]
